Data taken from patent US5326882A, “Chemiluminescent 3-(substituted Adamant-2'-Ylidene) 1,2-dioxetanes” (Tropix, Inc., priority 1992, dated 1994).

Legend:
alkaline phosphatase [1] = target: T1, alkaline phosphatase (Bos taurus, UniProt P19111); assay: Half-time to plateau at low alkaline phosphatase concentration (Example XLI); assay type: biochemical; details: 0.4 mM dioxetane at pH 10.0; 31.5° C.; 2.53 × 10^-13 M alkaline phosphatase
alkaline phosphatase [2] = target: T1, alkaline phosphatase; assay: Detection limits for alkaline phosphatase, Berthold LB952T (Example XXII); assay type: biochemical; details: twice background
Protocol: (§1) The detection means for alkaline phosphatase with different chemiluminescent 1,2-dioxetane substrates were determined as follows: Duplicates of serial dilutions (1 to 3) of alkaline phosphates were incubated at room temperature with 0.4 mM dioxetane in 0.1 M diethanolamine, 1 mM MgCl2, pH 10.0, containing 1 mg/ml of either of the polymeric enhancers Enhancer 1 or Enhancer 2, in […].
(§2) Following either a 5 or a 20 minute incubation with a substrate, the chemiluminescence intensity was measured as a 5 second integrated Relative Light Units (RLU) and plotted as in FIG. 10. […] The alkaline phosphatase concentrations at twice background were used as the detection limits in Table 5.

alkaline phosphatase [3] = target: T1, alkaline phosphatase; assay: Alkaline phosphatase detection limits, LabSystems Luminoskan (Example XXV); assay type: biochemical
Protocol: as §1, §2
The luminometer used in this example was LabSystems Luminoskan microtiter plate reader.

[4] = target: T2, alkaline phosphatase-labeled DNA probe (Bos taurus, UniProt P19111); assay: Alkaline phosphatase-labeled DNA probe detection in membrane with and without BDMQ blocking step (Example XV); details: for Detection limit (in picograms DNA) 5. min. exp.: five minute exposure 40 minutes after dioxetane addition; for Detection limit (in picograms DNA) 1 min. exp.: one minute exposure 77 minutes after dioxetane addition
T2 construct: purchased Tropix, Inc
Protocol: pBr 322 plasmid (4700 bp) was subjected to a nick translation process using a Trans-Light kit (Tropix, Inc., Bedford, Mass.) to generate a mixture of biotinylated single stranded polynucleotides of 200-2000 bps in length.
This mixture was dotted onto a dry BIODYNE A membrane as five parallel columns of dots of the following concentrations:
The membrane was subjected to ultraviolet irradiation (UVP Mineral Light; UVP, San Gabriel, Calif.) for 3 minutes to fix the DNA to the surface of the membrane, then air dried. Next, the membrane was blocked in 0.2% casein/0.1% Tween 20 detergent in PBS for 1 hour, following which 1/5000 diluted avidin-alkaline phosphatase conjugate (Tropix, Inc.) in 0.2% casein in PBS was added. The membrane was then incubated for 30 minutes, washed three times (for 5 minutes each time) in 0.2% casein/0.1% Tween 20 detergent in PBS and washed once for five minutes in aqueous 0.1M diethanolamine containing 1 mm magnesium chloride and 0.02% sodium azide, pH 10.0 (substrate buffer).
Next, the five columns of rows of dots 1-5 were individually cut from the membrane ("strips 1-5"), as were the five columns of rows of dots 6-10 ("strips 6-10"). Strips 1-5 were washed with substrate buffer for 30 minutes. Strips 6-10 were blocked in 0.1% BDMQ in substrate buffer for 30 minutes. Both sets of strips were then incubated for 5 minutes in substrate buffer, then individually incubated for five minutes in aqueous solutions (0.25 mM) of 1,2-dioxetanes as indicated below:
All strips were then placed in camera luminometers and exposed on Polaroid Type 612 instant black and white film.

[5] = target: T3, alkaline phosphatase (calf intestine; Biozyme) (Bos taurus, UniProt P19111); assay: Total dephosphorylation, chemiluminescence decay (Example XIII); assay type: biochemical; details: 30° C., carbonate/bicarbonate buffer
T3 construct: purchased Biozyme; host or cells: calf intestine
Protocol: A comparison of the total luminescence emission from AMPPD and from the corresponding 1,2-dioxetanes whose adamant-2'-ylidene groups are monosubstituted with hydroxy (A and B isomers), chloro and bromo groups was made by carrying out total dephosphorylation experiments on each of these compounds.
An aqueous solution of the 1,2-dioxetane (4.0 mm) in 0.05M sodium carbonate/sodium bicarbonate containing 1 mM magnesium chloride was prepared and then equilibrated at 30° C. Ten μl of a 7.64×10M aqueous solution of alkaline phosphatase (calf intestine; Biozyme) was then added, and the chemiluminescence from the resulting solution was recorded using a Turner Model 20E luminometer (Turner Instruments; Sunnyvale, Calif.).
The rates of chemiluminescence decay for each of the five compounds in question, expressed in relative light units (RLU's) per minute, are given in the following table.

alkaline phosphatase [6] = target: T1, alkaline phosphatase; assay: Alkaline phosphatase detection limits, Wilj microtiter plate luminometer (Example XXVI); assay type: biochemical; details: 23 MINUTE INCUBATION
alkaline phosphatase [7] = target: T1, alkaline phosphatase; assay: Chemiluminescent signal-to-noise levels with enhancers (Example XXIV); assay type: biochemical
Protocol: The chemiluminescent signal to noise levels were obtained with 2.83×10^-13 M alkaline phosphatase and various R-substituted adamantyl 1,2-dioxetane phosphates in the presence of several enhancers. All measurements were performed in a Berthold LB952T luminometer at room temperature. First, the background chemiluminescence levels (signal in the absence of the enzyme) of each sample (in triplicate) were measured. Each sample consisted of 0.2 μmoles of dioxetane in 0.45 ml of 0.1 M diethanolamine, 1 mM MgCl2, pH 10.0, without or with 1 mg/ml of the indicated enhancer. Tubes were inserted into the luminometer and the luminescence intensity was measured. Next, the tubes were removed from the luminometer and alkaline phosphatase (50 μl containing 1.415×10^-16 moles) was added to each tube, and the luminescence intensity was measured at 5 and 20 minutes after substrate addition. The final concentration of dioxetane in each tube was 0.4 mM.
All enhancers used at 1 mg/ml in 0.1 M DEA, pH 10. Alkaline phosphatase concentration=2.83×10^-13 M. Measurements performed in a Berthold LB952T Luminometer.

[8] = enhancer NONE, 5 min, alkaline phosphatase 2.83×10^-13 M

T3 sequence (P19111 20-506 limits assumed): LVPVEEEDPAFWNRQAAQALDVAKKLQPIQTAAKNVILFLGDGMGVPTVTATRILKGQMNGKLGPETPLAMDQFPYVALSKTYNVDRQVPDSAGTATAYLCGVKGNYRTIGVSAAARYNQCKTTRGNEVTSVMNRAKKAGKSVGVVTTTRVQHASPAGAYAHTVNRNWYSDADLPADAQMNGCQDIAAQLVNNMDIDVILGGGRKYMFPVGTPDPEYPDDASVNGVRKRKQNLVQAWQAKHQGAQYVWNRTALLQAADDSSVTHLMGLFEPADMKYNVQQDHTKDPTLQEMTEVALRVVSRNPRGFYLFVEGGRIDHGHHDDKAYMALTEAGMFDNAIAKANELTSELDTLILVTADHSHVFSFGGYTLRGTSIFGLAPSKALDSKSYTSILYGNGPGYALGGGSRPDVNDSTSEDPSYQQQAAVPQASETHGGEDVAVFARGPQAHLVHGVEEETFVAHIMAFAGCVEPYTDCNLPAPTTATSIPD
T1 sequence (P19111 20-506 limits assumed): as above
T2 sequence (P19111 20-506 limits assumed): as above
T2 sequence (P02701 25-152 partner): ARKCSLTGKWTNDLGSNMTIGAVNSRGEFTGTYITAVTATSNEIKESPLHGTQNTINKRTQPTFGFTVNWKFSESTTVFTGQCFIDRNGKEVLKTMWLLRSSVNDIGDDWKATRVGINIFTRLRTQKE

Structure (SMILES): COC12CC3CC(C1)C1(OOC1(OC)c1cccc(OP(=O)(O)O)c1)C(C3)C2 (single isomer, unassigned) [CH3 O-AMPPD-A]
- HALF-TIME TO PLATEAU (min.) AL LOW ALK PHOS CONCENTRATION (alkaline phosphatase [1]): 0.86 min

Structure (SMILES): CCCCOC12CC3CC(C1)C1(OOC1(OC)c1cccc(OP(=O)(O)O)c1)C(C3)C2 (centres unmarked) [n-BuO-AMPPD]
- HALF-TIME TO PLATEAU (min.) AL LOW ALK PHOS CONCENTRATION (alkaline phosphatase [1]): 0.71 min

Structure (SMILES): COC1(c2cccc(OP(=O)(O)O)c2)OOC12C1CC3CC2CC(Br)(C3)C1 (centres unmarked) [Br-AMPPD, disodium 3-(4-methoxyspiro-[1,2-dioxetane-3,2'-(5'-bromo)tricyclo[3.3.1.1^3,7]decan]-4-yl) phenyl phosphate]
- Detection limit for alkaline phosphatase (alkaline phosphatase [2]; ENHANCER 1, 5 MIN): 2.6 femtomoles/liter
- Detection limit for alkaline phosphatase (alkaline phosphatase [2]; ENHANCER 1, 20 MIN): 0.5 femtomoles/liter
- Detection limit for alkaline phosphatase (alkaline phosphatase [2]; ENHANCER 2, 5 MIN): 0.4 femtomoles/liter
- Detection limit for alkaline phosphatase (alkaline phosphatase [2]; ENHANCER 2, 20 MIN): 0.3 femtomoles/liter
- Alkaline phosphatase detection limit (at 2× background) (alkaline phosphatase [3]; SAPPHIRE II, 5 MINUTE INCUBATION): 0.0004 pM
- Alkaline phosphatase detection limit (at 2× background) (alkaline phosphatase [3]; SAPPHIRE II, 20 MINUTE INCUBATION): 0.00039 pM
- Alkaline phosphatase detection limit (at 2× background) (alkaline phosphatase [3]; SAPPHIRE, 5 MINUTE INCUBATION): 0.0027 pM
- Alkaline phosphatase detection limit (at 2× background) (alkaline phosphatase [3]; SAPPHIRE, 20 MINUTE INCUBATION): 0.0004 pM
- Detection limit (in picograms DNA) 5. min. exp. ([4]; BDMQ blocking step): 0.313 picograms DNA
- Detection limit (in picograms DNA) 1 min. exp. ([4]; BDMQ blocking step): 0.313 picograms DNA
- Detection limit (in picograms DNA) 5. min. exp. ([4]; no BDMQ blocking step): 1.250 picograms DNA
- Detection limit (in picograms DNA) 1 min. exp. ([4]; no BDMQ blocking step): 2.500 picograms DNA
- Total Decay Time [5]: 40 min
- Decay Rate I ([5]; RLU's per minute): 1.2 RLU's per minute
- Decay Rate II ([5]; RLU's per minute): 0.8 RLU's per minute
- Alkaline phosphatase detection limit (at 2× background) (alkaline phosphatase [6]; SAPPHIRE II): 0.00074 pM
- Alkaline phosphatase detection limit (at 2× background) (alkaline phosphatase [6]; SAPPHIRE): 0.00021 pM
- chemiluminescent signal-to-noise level (alkaline phosphatase [7]; EMERALD 1 1 mg/ml, 5 min): 149
- chemiluminescent signal-to-noise level (alkaline phosphatase [7]; EMERALD 1 1 mg/ml, 20 min): 915
- chemiluminescent signal-to-noise level (alkaline phosphatase [7]; EMERALD 2 1 mg/ml, 5 min): 315
- chemiluminescent signal-to-noise level (alkaline phosphatase [7]; EMERALD 2 1 mg/ml, 20 min): 503
- chemiluminescent signal-to-noise level (alkaline phosphatase [7]; SAPPHIRE 1 1 mg/ml, 5 min): 383
- chemiluminescent signal-to-noise level (alkaline phosphatase [7]; SAPPHIRE 1 1 mg/ml, 20 min): 566
- chemiluminescent signal-to-noise level (alkaline phosphatase [7]; SAPPHIRE 2 1 mg/ml, 5 min): 688
- chemiluminescent signal-to-noise level (alkaline phosphatase [7]; SAPPHIRE 2 1 mg/ml, 20 min): 1019
- chemiluminescent signal-to-noise level (alkaline phosphatase [7]; [8]): 77
- chemiluminescent signal-to-noise level (alkaline phosphatase [7]; enhancer NONE, 20 min): 92

Structure (SMILES): COC1(c2cccc(OP(=O)(O)O)c2)OOC12C1CC3CC2CC(OC(C)C)(C3)C1 (single isomer, unassigned) [i-PrO-AMPPD-B]
- HALF-TIME TO PLATEAU (min.) AL LOW ALK PHOS CONCENTRATION (alkaline phosphatase [1]): 0.68 min

Structure (SMILES): COC1(c2cccc(OP(=O)(O)O)c2)OOC12C1CC3CC2CC(OC(C)C)(C3)C1 (single isomer, unassigned) [i-PrO-AMPPD-A]
- HALF-TIME TO PLATEAU (min.) AL LOW ALK PHOS CONCENTRATION (alkaline phosphatase [1]): 0.93 min

Structure (SMILES): COC1(c2cccc(OP(=O)(O)O)c2)OOC12C1CC3CC2CC(Br)(C3)C1 (centres unmarked) [BrSPD]
- HALF-TIME TO PLATEAU (min.) AL LOW ALK PHOS CONCENTRATION (alkaline phosphatase [1]): 0.70 min

Structure (SMILES): COC1(c2cccc(OP(=O)(O)O)c2)OOC12C1CC3CC2CC(O)(C3)C1 (single isomer, unassigned) [HO-AMPPD]
- Detection limit for alkaline phosphatase (alkaline phosphatase [2]; ENHANCER 1, 5 MIN): 3.0 femtomoles/liter
- Detection limit for alkaline phosphatase (alkaline phosphatase [2]; ENHANCER 1, 20 MIN): 0.8 femtomoles/liter
- Detection limit for alkaline phosphatase (alkaline phosphatase [2]; ENHANCER 2, 5 MIN): 1.0 femtomoles/liter
- Detection limit for alkaline phosphatase (alkaline phosphatase [2]; ENHANCER 2, 20 MIN): 0.3 femtomoles/liter
- chemiluminescent signal-to-noise level (alkaline phosphatase [7]; EMERALD 1 1 mg/ml, 5 min): 307
- chemiluminescent signal-to-noise level (alkaline phosphatase [7]; EMERALD 1 1 mg/ml, 20 min): 386
- chemiluminescent signal-to-noise level (alkaline phosphatase [7]; EMERALD 2 1 mg/ml, 5 min): 247
- chemiluminescent signal-to-noise level (alkaline phosphatase [7]; EMERALD 2 1 mg/ml, 20 min): 299
- chemiluminescent signal-to-noise level (alkaline phosphatase [7]; SAPPHIRE 1 1 mg/ml, 5 min): 229
- chemiluminescent signal-to-noise level (alkaline phosphatase [7]; SAPPHIRE 1 1 mg/ml, 20 min): 305
- chemiluminescent signal-to-noise level (alkaline phosphatase [7]; SAPPHIRE 2 1 mg/ml, 5 min): 466
- chemiluminescent signal-to-noise level (alkaline phosphatase [7]; SAPPHIRE 2 1 mg/ml, 20 min): 643
- chemiluminescent signal-to-noise level (alkaline phosphatase [7]; [8]): 55
- chemiluminescent signal-to-noise level (alkaline phosphatase [7]; enhancer NONE, 20 min): 73

Structure (SMILES): COC1(c2cccc(OP(=O)(O)O)c2)OOC12C1CC3CC2CC(I)(C3)C1 (single isomer, unassigned) [ISPD-B]
- HALF-TIME TO PLATEAU (min.) AL LOW ALK PHOS CONCENTRATION (alkaline phosphatase [1]): 0.70 min

Structure (SMILES): COC1(c2cccc(OP(=O)(O)O)c2)OOC12C1CC3CC2CC(F)(C3)C1 (centres unmarked) [FSPD]
- HALF-TIME TO PLATEAU (min.) AL LOW ALK PHOS CONCENTRATION (alkaline phosphatase [1]): 0.74 min

Structure (SMILES): COC1(c2cccc(OP(=O)(O)O)c2)OOC12C1CC3CC2CC(Cl)(C3)C1 (centres unmarked) [CSPD]
- HALF-TIME TO PLATEAU (min.) AL LOW ALK PHOS CONCENTRATION (alkaline phosphatase [1]): 0.71 min

Structure (SMILES): COC1(c2cccc(OP(=O)(O)O)c2)OOC12C1CC3CC2CC(I)(C3)C1 (single isomer, unassigned) [ISPD-A]
- HALF-TIME TO PLATEAU (min.) AL LOW ALK PHOS CONCENTRATION (alkaline phosphatase [1]): 0.64 min
